We go through 1 compound from patent publication US20080171706A1, “Anti-Adhesive Compounds to Prevent and Treat Bacterial Infections” (priority 2004, published 2008).

The structures appear in SMILES notation.

In one experiment the target is T1, FimHtrCl#4 (Escherichia coli, UniProt P08191, G94E/N91S/S99N/V48A).
T1 construct: coding for the lectin domain of FimH (residues 1-158) with a C-terminal 6-histidine tag; made in house; host or cells: E. coli HB101 (lacking the fim operon), periplasmic extract, plasmid pMAS146
In words: biochemical. In kind it is binding, E. coli UPEC (Cl#4) strain. The procedure:
(§1) To investigate if these variations reflect differences in sugar binding at the molecular level, the dissociation constants of a series of mannosides for the FimH lectin domain from a fecal (F18) and from a UPEC (Cl#4) strain were determined. […] For comparison, binding to FimHtrJ96 was also investigated. Both F18 and Cl#4 FimH lectin domains were cloned, expressed, and purified in the same way as FimHtrJ96 (Schembri et al., 2000). These two lectin domains differ from the lectin domain of FimHJ96 by substitutions Val27Ala, Asn70Ser and Ser78Asn. In addition, FimHCl#4 differs from the other two variants by a Gly73Glu substitution. […] Five different tri-mannosides corresponding to high-mannose substructures were synthesized, and their binding to FimHtrJ96, FimHtrF18 and FimHtrCl#4 measured using our [^3H]-mannose displacement assay (Table 3). Alpha-D-mannose binding was first directly measured for each of the FimH variants.
(§2) [^3H]alpha-D-mannose was obtained from Amersham. […] Syntheses of tri-mannosides was as reported earlier by Oscarson and co-workers (1993). Weighed amounts of tri-mannosides were dissolved in double distilled water to give stock solutions of 0.87 M man-(1,2)-man-(1,2)-man, 0.25 M man-(1,2)-man-(1,3)-man, 0.27 M man-(1,2)-man-(1,6)-man, 0.30 M man-(1,3)-man-(1,6)-man, 0.13 M man-(1,6)-man-(1,6)-man. Similarly, alkyl mannosides were dissolved in double distilled water to give stock solutions of 100 mM methyl mannoside, 59.8 mM ethyl mannoside, 45.9 mM propyl mannoside, 51.9 mM butyl mannoside, 17.3 mM pentyl mannoside, 20.8 mM hexyl mannoside, 15.3 mM heptyl mannoside, 15.2 mM octyl mannoside. pNPalphaMan and MeUmbalphaMan (6 mg each) were dissolved in 20 μl DMSO and diluted to 20 mM using double distilled water. Binding experiments were performed using six different concentrations of [^3H]-alpha-D-mannose (final concentrations 43.5 μM, 29.0 μM, 19.3 μM, 12.9 μM, 8.6 μM, 5.7 μM). FimHtrJ96 obtained by growing bacteria in minimal medium was used in all binding experiments. 180 μl protein at a concentration of about 500 nM was mixed with 20 μl of the radioactive ligand, and incubated at 37° C. for 20 min. To separate free ligand from bound, the mixture was rapidly filtrated through a Protran BA 85 Cellulose-nitrate filter (Schleicher & Schuell, Dassel, Germany), and washed once with 1 ml of ice-cold 1× PBS (phosphate buffered saline). Filter-bound radioactivity was measured by scintillation spectrometry within 24 hours. The displacement experiments were performed using six different concentrations (final concentrations in the range 0.0˜43.5 μM) of the inhibitor, in the presence of 43.5 μM [^3H]-alpha-D-mannose. 20 μl radioactive ligand, 20 μl inhibitor at decreasing concentrations, and 160 μl protein (500 nM) were mixed, and the experiments performed as above. All experiments were performed in duplicates. For determination of KD for α-D-mannose, a hyperbolic curve (y=P1x/(P2+x), where P2=KD) was fitted to the data. For the displacement experiments, the curve y=P1/(P2+x), where P2 is the concentration of the inhibitor displacing 50% of the labelled ligand, [I]0.5 was used instead. To calculate the inhibitor dissociation constant (KI) the Cheng & Prusoff equation (KI=[I]0.5/([L]/KL+1); KL is the constant of dissociation for the ligand) (Cheng and Prusoff, 1973), was used when both the concentration of the radioactive ligand (L) and the displacing agent (I) are in excess over the protein (LT>>PT;IT>>PT, T indicates total concentration). […] A plot of IT/((1−Y)*(LT/KL)−Y) against 1/Y gives a straight line with a slope of KI.

In the next experiment the target is T2, FimHtrF18 (Escherichia coli, UniProt P08191, N91S/S99N/V48A).
T2 construct: coding for the lectin domain of FimH (residues 1-158) with a C-terminal 6-histidine tag; made in house; host or cells: E. coli HB101 (lacking the fim operon), periplasmic extract, plasmid pPKL316
Briefly: biochemical. Format: binding, E. coli fecal (F18) strain. As to the method: as §1, §2

Another experiment deals with T3, FimC:FimH complex (Escherichia coli, UniProt P08191).
T3 construct: lectin domain (residues 1-158) is joined to a carboxy-terminal pilin domain (residues 159-279)
In words: Binding of alpha-D-mannose to full length FimH in FimC:FimH complex. Details: species or system E. coli. As to the method: To eliminate the possibility of different binding strength for full length FimH and FimHtrJ96, the binding of alpha-D-mannose to FimC:FimH complex was also measured. […] The inhibition of [^3H]-mannose binding was used in a displacement assay to determine the dissociation constant for a synthetic butyl mannoside by measuring the amount of [^3H]-mannose bound to the protein in the presence of increasing amounts of the inhibitor (FIG. 1B). […] To investigate the effect of sequential addition of methyl groups to the O1 oxygen of D-mannose, a series of alkyl mannosides were synthesized and the dissociation constants determined using the [^3H]-mannose displacement assay and by surface plasmon resonance (Table 1).

By Kd is commonly meant a measure of binding affinity in units of concentration. Read a low Kd as a tighter complex.

T2 sequence (P08191 22-179 V48A/N91S/S99N): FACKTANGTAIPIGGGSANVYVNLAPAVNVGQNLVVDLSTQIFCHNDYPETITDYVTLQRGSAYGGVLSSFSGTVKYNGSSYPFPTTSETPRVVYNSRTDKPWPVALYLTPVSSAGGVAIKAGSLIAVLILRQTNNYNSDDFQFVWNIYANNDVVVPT
T1 sequence (P08191 22-179 V48A/N91S/G94E/S99N): as the sequence (P08191 22-179 V48A/N91S/S99N) above, with G73E counted along it
T3 sequence (P08191 22-300): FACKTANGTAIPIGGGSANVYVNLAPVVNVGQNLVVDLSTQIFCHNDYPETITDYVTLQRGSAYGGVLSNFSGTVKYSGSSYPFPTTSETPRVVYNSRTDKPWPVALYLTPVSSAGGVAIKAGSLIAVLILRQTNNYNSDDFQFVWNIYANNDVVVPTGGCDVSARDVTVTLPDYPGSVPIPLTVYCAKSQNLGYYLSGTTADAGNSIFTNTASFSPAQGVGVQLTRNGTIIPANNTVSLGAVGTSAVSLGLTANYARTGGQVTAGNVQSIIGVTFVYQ
T3 sequence (P31697 37-241, further chain): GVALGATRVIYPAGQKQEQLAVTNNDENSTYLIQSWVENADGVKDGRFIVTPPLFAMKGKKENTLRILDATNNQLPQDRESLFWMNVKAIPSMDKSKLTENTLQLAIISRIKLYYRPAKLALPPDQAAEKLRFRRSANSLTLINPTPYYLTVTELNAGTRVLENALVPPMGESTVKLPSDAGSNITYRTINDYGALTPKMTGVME

For the compound `OC[C@H]1O[C@H](O)[C@@H](O)[C@@H](O)[C@@H]1O` [Mannose, α-D-mannose], the Kd was found to be 10.7 µM on FimHtrCl#4 (KD CI#4, Table 3, [3H]-mannose displacement assay (mannose measured directly)); 11 µM at FimHtrCl#4 (KD, mannose binding measured directly, FimHtrCl#4); 9.8 µM on FimHtrF18 (KD F18, Table 3, [3H]-mannose displacement assay (mannose measured directly)); 10 µM on FimHtrF18 (KD, mannose binding measured directly, FimHtrF18); 2.3 µM at FimC:FimH complex. For the same compound, on FimHtrCl#4 (Table 3, calculated from KD), the “ΔG° CI#4” value is -7.0 kcal/mol. Besides, at FimHtrF18 (Table 3, calculated from KD), the “ΔG° F18” value was -7.1 kcal/mol.
